This is an account of results in PubChem BioAssay AID1053179 (The Scripps Research Institute Molecular Screening Center, 2014).

Calls of active or inactive are those of the source.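 How the source made its calls: active means IC50 for loss of cell viability, measured as ATP drop, at or below 10 µM; inactive means the rest.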

The test system of this test is Jurkat viability, CellTiter-Glo ATP luminescence. Nature of the test: viability loss in human Jurkat cells – cell-based, luminescence, powder samples, cytotoxicity control for TAAR1 agonist/antagonist project, late-stage follow-up (AID 1053179).
`COc1cc(C(=O)CCN2CCC(c3ccccc3)C2)cc(OC)c1OC` (configuration not stated): the IC50 (as a rule, the point on the concentration scale where inhibition reaches its midpoint) is 7.06 µM.

`CC(CN1CCCC1Cc1ccccc1)C(=O)c1ccc2c(c1)OCCO2` (configuration not stated): the half-maximal inhibitory concentration (IC50) was 3.66 µM.

Regarding `N#Cc1c(C(F)(F)F)cc(-c2ccc(Cl)cc2)nc1SCC(=O)N1CCCC1`, the IC50 was > 83.3 µM (inactive).

Turning to `Cc1ccc(C(=O)CCN2CCC(c3ccccc3)C2)cc1` (configuration not stated), the IC50 is 5.06 µM.

On to `O=C(CCN1CCC(c2ccccc2)C1)c1ccccc1` (configuration not stated), for which the IC50 is 3.95 µM.

With `N#Cc1c(C(F)(F)F)cc(-c2ccc(Cl)cc2)nc1SCC(=O)Nc1ncccn1`, the IC50 is 53 µM (inactive).

Take `N#Cc1c(C(F)(F)F)cc(-c2ccc(Cl)cc2)nc1SCC(=O)N1CCCCCC1`: the IC50 is > 83.3 µM (inactive).
